Experiments:
[1] = Cardiovascular telemetry study; format: in vivo, cynomolgus monkeys; details: conscious monkeys, single intravenous 30-minute infusion
From the text: The objective of this study was to evaluate the potential modifications of cardiovascular function and cardiac electrophysiology by CAP7.1. The intravenous route was selected, as it is the intended mode of administration in human therapeutic use.
A total of four cynomolgus monkeys (two males and two females) were implanted with telemetric devices and allocated to a single group. They received a single dose of the vehicle (Cremophor/ethanol/NaCl) or CAP7.1, by intravenous 30-minute infusion. Cardiovascular parameters were monitored up to 24 hours following single infusion. The cardiovascular parameters evaluated in this study included heart rate, diastolic, systolic and mean arterial pressure, and duration of the PQ, QRS and QT intervals.

[2] = tested on: U937 cells; assay: Cell cycle analysis in multidrug-resistant U937 cells (propidium iodide); format: cell-based; details: 18 h, 24 h and 48 h, CAP7.1, etoposide 10^−4 mol/l
Protocol: The cells were incubated for 48 h. After 18 h, 24 h and 48 h of incubation, respectively, cell cycle analysis was performed as follows:
Cells were washed once with CellWash, fixed with fridge-cold 70% Ethanol for 30 min at 4° C. and washed three times. RNA was digested with RNAse A (100 μg/ml in PBS) for 10 min at room temperature. Cells were washed once with CellWash and stained with propidium iodide (50 μg/ml in PBS) for 5 min at room temperature in the dark. Cells were analyzed immediately by flow cytometry using a FACScanto II apparatus.

[3] = biological target: T1, CES2 (Homo sapiens, UniProt O00748); assay: Conversion of CAP7.1 to etoposide by CES2 (HPLC); format: in vitro ADME; details: 5 μM CAP7.1, sodium phosphate pH 7.4, 37° C.
T1 sequence (O00748 27-559): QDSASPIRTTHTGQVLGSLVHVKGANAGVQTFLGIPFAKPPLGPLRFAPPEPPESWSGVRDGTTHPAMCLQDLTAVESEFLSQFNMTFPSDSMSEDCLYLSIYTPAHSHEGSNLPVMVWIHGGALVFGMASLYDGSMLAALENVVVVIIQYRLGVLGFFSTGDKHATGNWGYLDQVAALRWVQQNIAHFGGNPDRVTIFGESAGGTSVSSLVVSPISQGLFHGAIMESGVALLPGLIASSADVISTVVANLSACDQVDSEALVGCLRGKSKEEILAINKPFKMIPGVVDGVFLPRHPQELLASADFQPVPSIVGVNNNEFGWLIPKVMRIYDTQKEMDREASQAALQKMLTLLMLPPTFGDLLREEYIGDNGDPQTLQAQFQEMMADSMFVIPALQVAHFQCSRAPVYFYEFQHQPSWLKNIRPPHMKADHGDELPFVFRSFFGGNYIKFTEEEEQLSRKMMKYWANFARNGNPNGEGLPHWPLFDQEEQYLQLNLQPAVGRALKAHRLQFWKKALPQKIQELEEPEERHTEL
Protocol: (§1) 5 μM CAP7.1 was pre-incubated for 3 min in 999 μl 0.1 mol/l) sodium phosphate (NaH2PO4, Roth, Karlsruhe, Germany) pH 7.4 at 37° C. After that, CES1, CES2 and CES3, respectively, were added. Controls were incubated with 10% foetal calf serum (FCS, positive control) or in buffer (negative control). At different time points, aliquots were subjected to HPLC in order to analyse the formed products.

[4] = Side effects in preclinical and clinical studies; format: in vivo
[5] = Stability in sodium phosphate buffer (negative control); format: physicochemical; details: sodium phosphate pH 7.4, 37° C.
Protocol: as §1

[6] = biological target: P-glycoprotein (Homo sapiens, UniProt P08183); assay: P-glycoprotein substrate behaviour; format: cell-based
P-glycoprotein, sequence (P08183 whole entry): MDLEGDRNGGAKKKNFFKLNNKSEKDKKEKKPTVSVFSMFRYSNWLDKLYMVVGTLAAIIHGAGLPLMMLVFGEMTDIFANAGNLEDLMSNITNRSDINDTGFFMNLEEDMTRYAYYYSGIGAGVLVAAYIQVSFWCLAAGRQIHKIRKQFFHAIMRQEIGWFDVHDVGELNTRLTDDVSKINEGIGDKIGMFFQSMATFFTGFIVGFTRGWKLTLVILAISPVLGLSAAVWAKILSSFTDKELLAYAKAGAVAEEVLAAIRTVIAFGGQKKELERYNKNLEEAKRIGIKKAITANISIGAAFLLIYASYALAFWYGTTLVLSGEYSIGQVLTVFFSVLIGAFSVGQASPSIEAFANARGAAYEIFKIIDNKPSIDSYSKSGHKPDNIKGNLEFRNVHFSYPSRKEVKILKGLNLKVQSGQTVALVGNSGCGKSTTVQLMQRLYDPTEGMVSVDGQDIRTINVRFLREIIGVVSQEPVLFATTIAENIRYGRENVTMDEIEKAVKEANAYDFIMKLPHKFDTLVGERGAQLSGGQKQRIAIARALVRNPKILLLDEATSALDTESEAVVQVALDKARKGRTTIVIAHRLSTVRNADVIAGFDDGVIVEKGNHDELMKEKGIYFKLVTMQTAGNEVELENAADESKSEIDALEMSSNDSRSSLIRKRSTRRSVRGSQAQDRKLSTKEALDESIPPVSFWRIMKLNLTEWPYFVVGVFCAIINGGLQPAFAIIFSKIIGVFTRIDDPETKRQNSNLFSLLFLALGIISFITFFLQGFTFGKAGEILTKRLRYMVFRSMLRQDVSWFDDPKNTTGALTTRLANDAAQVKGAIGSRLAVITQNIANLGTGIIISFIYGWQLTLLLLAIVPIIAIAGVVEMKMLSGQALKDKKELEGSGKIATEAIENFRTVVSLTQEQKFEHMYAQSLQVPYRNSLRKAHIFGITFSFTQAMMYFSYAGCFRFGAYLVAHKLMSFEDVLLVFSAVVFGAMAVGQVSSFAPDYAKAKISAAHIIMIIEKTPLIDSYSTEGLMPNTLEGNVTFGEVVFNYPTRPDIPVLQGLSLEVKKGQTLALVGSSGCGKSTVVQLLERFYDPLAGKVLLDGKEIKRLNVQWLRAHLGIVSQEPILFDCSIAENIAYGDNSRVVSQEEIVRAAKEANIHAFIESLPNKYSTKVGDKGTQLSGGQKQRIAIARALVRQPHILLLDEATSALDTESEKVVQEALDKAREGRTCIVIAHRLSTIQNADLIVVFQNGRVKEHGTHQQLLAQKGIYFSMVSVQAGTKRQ

[7] = biological target: T2, MDR-1 gene product (P-glycoprotein) (Homo sapiens, UniProt P08183); assay: Functional MDR-1 assay with JC-1 in Kelly cells (flow cytometry); format: cell-based; details: for intracellular JC-1 signal versus DMSO control (MDR-1-mediated substrate efflux): Kelly cells, 10^−4 mol/l, 15 min
T2 construct: endogenous in cells; host or cells: Kelly
T2 sequence (P08183 whole entry): as above
Protocol: By means of an assay using JC-1, MDR-1 activity was assessed in Kelly cells, which express MDR-1. JC-1 is a cationic staining dye which is taken up by living cells. JC-1 is recognized by the MDR-1 gene product (P-glycoprotein) and pumped to the outside of the cell (substrate efflux). Thus, MDR-1 activity is indicated by a reduction in intracellular JC-1 signal.
Kelly cells grown in RPMI medium were washed and resuspended at a concentration of 10^6 cells/ml in solutions containing JC-1 in a final concentration of 50 nmol/l. […] The control contained 1 μl (0.05%) DMSO. Cells were analysed for JC-1 staining in a FACScanto II flow cytometer.

[8] = Half life in humans; details: human, in vivo
[9] = biological target: T3, CES3 (Homo sapiens, UniProt Q6UWW8); assay: Conversion of CAP7.1 to etoposide by CES3 (HPLC); format: in vitro ADME; details: 5 μM CAP7.1, sodium phosphate pH 7.4, 37° C.
T3 sequence (Q6UWW8 27-571): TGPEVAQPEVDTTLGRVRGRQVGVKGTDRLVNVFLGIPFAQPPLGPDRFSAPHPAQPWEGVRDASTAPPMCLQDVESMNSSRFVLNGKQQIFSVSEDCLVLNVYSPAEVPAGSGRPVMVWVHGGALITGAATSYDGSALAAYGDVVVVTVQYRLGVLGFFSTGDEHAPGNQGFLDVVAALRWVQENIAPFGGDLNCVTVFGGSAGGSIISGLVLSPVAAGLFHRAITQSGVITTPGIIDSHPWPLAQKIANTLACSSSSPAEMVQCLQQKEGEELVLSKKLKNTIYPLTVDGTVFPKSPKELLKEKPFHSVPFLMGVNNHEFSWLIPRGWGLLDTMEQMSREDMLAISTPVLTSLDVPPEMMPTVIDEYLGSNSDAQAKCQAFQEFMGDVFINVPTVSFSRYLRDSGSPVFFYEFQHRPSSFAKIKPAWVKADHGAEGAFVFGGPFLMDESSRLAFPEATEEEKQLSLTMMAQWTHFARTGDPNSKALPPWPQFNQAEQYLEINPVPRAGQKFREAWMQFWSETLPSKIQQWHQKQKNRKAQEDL
Protocol: as §1

[10] = biological target: T4, CES1 (Homo sapiens, UniProt P23141); assay: Conversion of CAP7.1 to etoposide by CES1 (HPLC); format: in vitro ADME; details: 5 μM CAP7.1, sodium phosphate pH 7.4, 37° C.
T4 sequence (P23141 18-567): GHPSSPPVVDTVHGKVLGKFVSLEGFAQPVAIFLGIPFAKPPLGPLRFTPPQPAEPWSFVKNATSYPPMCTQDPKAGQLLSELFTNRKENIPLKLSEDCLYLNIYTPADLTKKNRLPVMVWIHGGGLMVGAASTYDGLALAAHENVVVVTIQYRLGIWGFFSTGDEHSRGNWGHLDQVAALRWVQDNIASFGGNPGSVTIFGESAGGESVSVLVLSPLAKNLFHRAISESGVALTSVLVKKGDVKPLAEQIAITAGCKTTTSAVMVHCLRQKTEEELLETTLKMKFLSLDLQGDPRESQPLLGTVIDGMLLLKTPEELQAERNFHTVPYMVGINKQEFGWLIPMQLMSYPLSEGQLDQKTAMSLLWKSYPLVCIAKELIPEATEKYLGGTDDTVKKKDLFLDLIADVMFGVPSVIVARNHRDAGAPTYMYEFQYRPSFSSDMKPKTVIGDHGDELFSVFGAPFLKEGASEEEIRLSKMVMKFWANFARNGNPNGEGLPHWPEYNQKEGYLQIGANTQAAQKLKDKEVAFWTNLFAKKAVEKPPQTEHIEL
Protocol: as §1

[11] = mouse, in vivo
[12] = tested on: topoisomerase II β; assay: Topoisomerase II beta mRNA expression in U937 cells (PCR); format: cell-based; details: 10^4 mol/l, 24 h
Protocol: (§2) One of the controls involved the treatment of the cells with 0.05% (1 μl) DMSO. Untreated cells are also shown as a control.
(§3) After an incubation time of 24 h, expression was analysed by determining mRNA levels by real-time PCR. In the respective lanes of FIG. 2, the bands for topoisomerase II α (322 bp), topoisomerase II β (304 bp) and the GAPDH control (358 bp) are shown. In the H2O control lane, showing the results of the H2O control sample, no bands were observed.

[13] = tested on: topoisomerase II α; assay: Topoisomerase II alpha mRNA expression in U937 cells (PCR); format: cell-based; details: 24 h
Protocol: as §2, §3

[14] = Animal toxicity profile; details: animals
[15] = tested on: tumour cells; details: cited from earlier work
[16] = Combination therapy with carboplatin in children with advanced neuroblastoma; format: in vivo, human; details: human; plasma, one of the children treated
Protocol: (§4) CAP7.1 was administered with carboplatin to three children with heavily pre-treated advanced neuroblastoma.
(§5) Cycles were repeated every 21 days and a total of 4 cycles were administered in each patient. Toxicity was mainly haematological, grade 1-2 at 200 mg/m^2 and increased to grade 3-4 in the rest of the cycles, but cycle delay due to toxicity was not necessary.

[17] = tested on: advanced neuroblastoma; assay: as above; format: in vivo, human
Protocol: as §4, §5

[18] = Time course of apoptosis induction; format: cell-based
[19] = tested on: tumours that were metastatic and/or that reduced the function of at least one organ; assay: Phase I/IIa safety/efficacy study in patients with metastatic and/or organ-function-reducing tumours
Protocol: Nine heavily pre-treated patients were recruited to a combined Phase I/IIa safety/efficacy study. The patients had tumours that were metastatic and/or that reduced the function of at least one organ.
In all patients, the tumours were clinically assessed and the history of their disease was recorded. Tumour markers were determined.
A cycle of treatment consisted of CAP7.1 administration by infusion on 5 consecutive days, followed by an intermittent period of 16 days in which no CAP7.1 was administered. […] The first cohort (patients 1-3, 8 cycles in total) received CAP7.1 at a daily dose of 45 mg/m^2, the second cohort (patients 4-6, 9 cycles in total) at a daily dose of 90 mg/m^2 and the third cohort (patients 7-9) at a daily dose of 150 mg/m^2.

[20] = Half life in primates; format: in vivo
[21] = tested on: NSX2 tumour xenografts; assay: NSX2 tumour xenograft model; format: in vivo; details: mice bearing NSX2 tumour xenografts (MDR-mediated etoposide-resistant)
From the text: The lack of cross-resistance to CAP7.1 of MDR-mediated etoposide-resistant cell lines in vitro was confirmed in vivo in mice bearing NSX2 tumour xenografts.

[22] = Half life in mice; details: mouse, in vivo; mice with high levels of carboxylesterases
[23] = tested on: HT-29 cells; assay: Cytotoxicity on HT-29 cells (XTT); format: cell-based; details: cell viability (XTT)
Protocol: HT-29 cells, which are not multidrug-resistant, were grown in DMEM, 10% foetal calf serum, 2 mM glutamine and […] Pen/Strep medium and then washed.
Cells were harvested, counted, and inoculated at the appropriate concentration of 10^4 cells/well (100 μl volume) into 96-well microtiter plates. After 24 h, the drugs were applied to triplicate culture wells, and cultures were incubated for given times at 37° C. XTT was prepared at 1 mg/ml in pre-warmed (37° C.) medium (RPMI 1640) without serum. PMS was prepared at 5 mmol/l (1.53 mg/ml) in PBS. Fresh XTT and PMS were mixed together at appropriate concentrations. For a 25 μmol/l XTT-PMS solution, 25 μl of the 5 mmol/l PMS solution were added per 5 ml of XTT (1 mg/ml). 50 μl of this mixture were added to each well on given time points after cell inoculation. After incubation at 37° C., the plates were mixed on a mechanical plate shaker, and absorbance was measured with an ELISA Reader to determine cell viability.

COc1cc([C@@H]2c3cc4c(cc3C(OC3OC5COC(C)OC5C(O)C3O)C3COC(=O)[C@@H]32)OCO4)cc(OC)c1OC(=O)OCC(O)CO (some centres unmarked) [CAP7.1]
arrhythmias [1]: No arrhythmias
modifications in the cardiac electrophysiological parameters ([1]; up to 24 hours): no relevant modifications
fraction of cells in G2 phase with increasing incubation times [2]: increase
cleavage of CAP7.1 to etoposide by CES2 [3]: as efficiently as the positive control FCS
side effects compared with etoposide [4]: fewer side effects than etoposide
stability in buffer (negative control) [5]: stable
substrate for P-glycoprotein / efflux from cells [6]: not a substrate for P-glycoprotein
intracellular JC-1 signal versus DMSO control (MDR-1-mediated substrate efflux) [7]: increased
half-life [8]: 15 to 30 min
cleavage of CAP7.1 to etoposide by CES3 [9]: substantially no cleavage
cleavage of CAP7.1 to etoposide by CES1 [10]: efficiently cleaves
LD10 [11]: 360 mg/m^2
expression of topoisomerase II β (mRNA) [12]: significant decrease
expression of topoisomerase II α (mRNA) [13]: significant decrease
main toxicity at sublethal dose [14]: bone marrow suppression affecting predominantly neutrophils and red cells
weight loss [14]: do not
tooth damage ([14]; high dose group): reversible tooth damage
potency relative to etoposide, e.g. cytotoxicity on tumour cells [15]: up to 1000 times
Cmax [16]: 3700 ng/mL
half-life [16]: 12 to 30 min
haematological toxicity grade ([17]; CAP7.1 200 mg/m^2 day 1 with carboplatin 150 mg/m^2 days 2-5): 1-2 grade
haematological toxicity grade ([17]; rest of the cycles (CAP7.1 400, 600 and 800 mg/m^2) with carboplatin): 3-4 grade
tumour response ([17]; two of the three patients, with carboplatin): evidences of tumour shrinkage
time after which apoptosis is complete [18]: 120 h
tolerability of the therapy ([19]; all nine patients, 45, 90 or 150 mg/m^2 daily on 5 consecutive days per cycle): tolerated the therapy well without major adverse reactions
clinical response after the second cycle of treatment ([19]; patients 1, 3, 4, 6, 8 and 9 of nine): stagnation of the disease
total dose per cycle tolerated without toxicity ([19]; patients 1 to 6): 450 mg/m^2
half life compared with mice [20]: longer
tumour growth compared to control [21]: clear inhibition of tumour growth
half-life [22]: < 5 min
IC50 value of CAP7.1 lower than IC50 value of etoposide [23]: 10 fold

COc1cc([C@@H]2c3cc4c(cc3[C@@H](O[C@@H]3O[C@@H]5CO[C@@H](C)O[C@H]5[C@H](O)[C@H]3O)[C@H]3COC(=O)[C@H]23)OCO4)cc(OC)c1O [etoposide, reference compound]
fraction of cells in G2 phase with increasing incubation times [2]: reduction
substrate for P-glycoprotein / efflux from cells [6]: pumped out of the cells
intracellular JC-1 signal versus DMSO control (MDR-1-mediated substrate efflux) [7]: identical
effect on the MDR-1 gene product P-glycoprotein ([7]; general statement): ineffective on P-glycoprotein
expression of topoisomerase II β (mRNA) [12]: significant decrease
expression of topoisomerase II α (mRNA) [13]: significant decrease
weight loss [14]: significant weight loss
